# How the values were obtained:
# [1] = system: VIP/PACAP (PAC1/VPAC1/VPAC2); assay: Aequorin assay, VIP/PACAP receptors; format: cell-based, human; settings: CHO-AEQ
# Protocol: (§1) Receptor […] activity assays were performed using 8′OH-2-CF3-dihydroergotamine (8′OH-2-CF3-DHE). Table 1 summarizes the cell lines (CHO-K1/HEK293 transfected with relevant human receptor) and the assays performed to detect any agonist or antagonist activity.
# Aequorin assays were conducted to monitor activity for 8′OH-2CF3-dihydroergotamine (8′OH-2CF3-DHE) against the receptors indicated in Table 1 above (except for mGlu3 and mGlu5). CHO-K1 cells coexpressing mitochondrial apoaequorin and the recombinant human receptor of interest were grown to mid-log phase in culture media without antibiotics and then detached with PBS-EDTA, centrifuged and resuspended in assay buffer (DMEM/HAM's F12 with HEPES, without phenol red+0.1% BSA, protease free) at a concentration of 1×10^6 cell/mL. […]
# 50 μL of the cell suspension was mixed with 50 μL of test or reference agonist in a 96-well plate. The resulting emission of light was recorded using Hamamatsu Functional Drug Screening System 6000 (FDSS 6000) luminometer. […]
# To standardize the emission of recorded light (and determine of the “100% signal”) across plates and across different experiments, some wells contained 100 μM digitonin or a saturating concentration of ATP (20 μM).
# [2] = system: NMDA (NR1/NR2A/NR2B/NR2C/NR2D); assay: NMDA receptor channel Fluo-8 calcium FLIPR assay; format: cell-based, human; settings: HEK293, Fluo-8 calcium FLIPR, agonist and antagonist assessment
# Protocol: Studies for NMDA receptors, NR1, NR2A, NR2B, NR2C, NR2D receptor, were conducted to monitor receptor activity for 8′OH-2CF3-dihydroergotamine (8′OH-2CF3-DHE) using the Fluo-8 calcium kit and a Fluorescence Imaging Plate Reader (FLIPR^TETRA™) instrument. The following channels were evaluated: Cloned NMDA receptor (NR1/NR2A) channel (encoded by the GRIN1 and GRIN2A genes, coexpressed in HEK293 cells; Cloned NMDA receptor (NR1/NR2B) channel (encoded by the GRIN1 and GRIN2B genes, coexpressed in HEK293 cells; Cloned NMDA receptor (NR1/NR2C) channel (encoded by the GRIN1 and GRIN2C genes, coexpressed in HEK293 cells; and Cloned NMDA receptor (NR1/NR2D) channel (encoded by the GRIN1 and GRIN2D genes, transiently coexpressed in HEK293 cells.
# For the agonist assessment, the effect of 8′OH-2CF3-DHE was evaluated in the absence of the positive control agonist. The signal, elicited in the presence of the agonist (100 μM Glutamic acid+20 μM Glycine), was set to 100% activation and the signal in the presence of the vehicle control (Mg^2+-free HB-PS) was set to 0% activation.
# For the antagonist assessment, NR1/NR2A and NR1/NR2B was activated with the positive control agonist (100 μM Glutamic acid+20 μM Glycine). The ability of 8′OH-2CF3-DHE to inhibit the signal was examined after agonist stimulation and compared to the positive control antagonist (MK-801). […]
# Dopamine D2L = biological target: T1, Dopamine D2L (Homo sapiens, UniProt P14416); assay: GTPγ[35S] assay, Dopamine D2L; format: biochemical; settings: agonism, CHO-K1 membranes
# T1 construct: expressed in transfected cells; host or cells: CHO-K1 (membrane extracts)
# Protocol: as §1
# GTPγS studies were conducted to monitor agonist activity for 8′OH-2CF3-dihydroergotamine (8′OH-2CF3-DHE) against the receptors indicated in Table 1 above. Reagents used were the following: Assay buffer (20 mM HEPES, pH 7.4; 100 mM NaCl; 10 μg/mL saponin; 30 mM MgCl2); Membranes (recombinant human receptor membrane extracts were thawed on ice and diluted in assay buffer to give 1000 μg/mL ([…]) and kept on ice); GDP (diluted in assay buffer to give 30 μM solution (3 μM final concentration); beads (PVT-WGA (Amersham, RPNQ001), diluted in assay buffer at 25 mg/mL (0.25 mg/10 μL)); GTPγ^35S (Perkin Elmer, NEG030X), diluted in assay buffer to give 0.1 nM (final concentration); and ligand (agonist/antagonist diluted in assay buffer).
# Membranes were mixed with GDP (1:1) and incubated for at least 15 minutes on ice. In parallel GTPγ^35S was mixed with the beads (1:1) just before starting the reaction. […] The plates were then centrifuged for 10 minutes at 2000 rpm and incubated at room temperature for 1 hour and counted for 1 min/well with a Perkin Elmer TopCount reader.
# Dopamine D1 = biological target: T2, Dopamine D1 (Homo sapiens, UniProt P21728); assay: cAMP HTRF assay, Dopamine D1; format: cell-based; settings: CHO-K1, cAMP
# T2 construct: expressed in transfected cells; host or cells: CHO-K1
# Protocol: as §1
# cAMP HTRF (Gs) studies were conducted to monitor activity for 8′OH-2CF3-dihydroergotamine (8′OH-2CF3-DHE) against the receptors indicated in Table 1 above. Cells expressing the human recombinant receptor of interest were grown in media without antibiotic and detached by gentle flushing with PBS-EDTA (5 mM EDTA), recovered by centrifugation and resuspended in assay buffer (KRH: 5 mM KCl, 1.25 mM MgSO4, 124 mM NaCl, 25 mM HEPES, 13.3 mM glucose, 1.25 mM KH2PO4, 1.45 mM CaCl2, 0.5 g/L BSA). Dose response curves were performed in parallel with the reference compounds. For agonist tests (96-well plates), 12 μL of cells was mixed with 12 μL of the test compound at increasing concentrations and then incubated for 30 minutes at room temperature. Lysis buffer was added and after a 1 hour incubation, cAMP concentrations was determined according to the manufacturer specification with the HTRF kit. […] Lysis buffer was added and after a 1 hour incubation, cAMP concentrations were determined according to the manufacturer specification, with the HTRF kit.
# T1 sequence (P14416 whole entry): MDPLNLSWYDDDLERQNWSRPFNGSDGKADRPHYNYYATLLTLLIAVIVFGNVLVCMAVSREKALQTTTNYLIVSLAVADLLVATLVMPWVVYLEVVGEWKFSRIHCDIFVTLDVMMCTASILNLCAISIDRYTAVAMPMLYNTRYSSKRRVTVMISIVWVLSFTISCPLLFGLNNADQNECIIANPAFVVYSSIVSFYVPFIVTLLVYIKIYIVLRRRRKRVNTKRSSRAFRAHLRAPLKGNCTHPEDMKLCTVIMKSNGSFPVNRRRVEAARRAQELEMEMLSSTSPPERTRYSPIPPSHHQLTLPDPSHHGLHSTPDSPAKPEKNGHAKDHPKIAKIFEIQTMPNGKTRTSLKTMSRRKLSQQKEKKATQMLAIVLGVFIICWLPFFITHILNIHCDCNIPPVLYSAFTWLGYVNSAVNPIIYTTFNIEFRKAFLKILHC
# T2 sequence (P21728 whole entry): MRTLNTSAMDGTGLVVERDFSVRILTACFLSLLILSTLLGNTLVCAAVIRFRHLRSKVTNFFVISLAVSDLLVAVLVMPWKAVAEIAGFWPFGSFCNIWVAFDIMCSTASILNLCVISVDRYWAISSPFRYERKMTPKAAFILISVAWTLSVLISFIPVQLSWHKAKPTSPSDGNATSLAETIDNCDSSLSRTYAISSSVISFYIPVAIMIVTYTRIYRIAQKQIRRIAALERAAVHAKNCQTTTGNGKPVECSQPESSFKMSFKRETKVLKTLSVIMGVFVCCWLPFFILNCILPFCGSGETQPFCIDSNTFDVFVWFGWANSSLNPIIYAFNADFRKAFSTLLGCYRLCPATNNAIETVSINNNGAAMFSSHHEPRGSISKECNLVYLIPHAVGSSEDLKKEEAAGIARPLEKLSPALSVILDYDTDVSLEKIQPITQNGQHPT
compound,measurement,setting,value
"CN1C[C@H](C(=O)N[C@]2(C)O[C@@]3(O)[C@@H]4CC[C@@H](O)N4C(=O)[C@H](Cc4ccccc4)N3C2=O)C[C@@H]2c3cccc4[nH]c(C(F)(F)F)c(c34)C[C@H]21 [8′OH-2-CF3-DHE, 8′-Hydroxy-2-CF3-dihydroergotamine]","Activity (Agonism: EC50; Antagonism: IC50), VIP/PACAP (PAC1/VPAC1/VPAC2)",[1],Inactive
same,"Activity (Agonism: EC50; Antagonism: IC50), NMDA (NR1/NR2A/NR2B/NR2C/NR2D)",[2],Inactive
same,EC50,Dopamine D2L,17.3 nM
same,"Activity (Agonism: EC50; Antagonism: IC50), D1",Dopamine D1,Inactive
